# Assay: in vitro
# Conditions: human, hela cells
row,SMILES,"viability at 28.5 h, 10 µM [%]"
1,CS(=O)(=O)c1ccc(-c2ccc3c(c2)CCN(C2CCN(C(=O)Oc4ccccc4)CC2)C3)cc1 [CBK169518],90.1

# Same assay, conditions: human, hela cells, % viability
row,SMILES,"viability at 28.5 h, 10 µM [%]"
1,COc1ccc(CN2CCCN(c3ccnc(OCCN4CCOCC4)n3)CC2)cc1 [CBK083800],99.2
2,Cc1c(CC(=O)O)c2c(n1Cc1ccc(F)cc1)CCCC2=O [CBK287078],103
3,O=C1COC[C@H]([C@H](O)c2ccc(NC(=O)c3cnccn3)cc2)N1 [CBK289673],104
4,Cc1ccccc1-c1cc(=O)[nH]c(Nc2ccccc2)n1 [CBK288142],97
5,CCn1cnc2c1CC/C(=N\O)C2 [CBK010044],80.6
6,O=C(C1CCC1)N1CCC(n2nc(C3CC3)ccc2=O)CC1 [CBK284239],104
7,O=C(Oc1ccccc1)c1ccnc(Cl)c1 [CBK090322],87.2
8,O=C(CCCCCN1C(=O)CCC1=O)Nc1nc[nH]n1 [CBK267682],103
9,Cc1nc([N+](=O)[O-])cn1CCC(=O)Nc1ccccc1Oc1ccccc1Cl [CBK298319],101
10,Cc1ccc2nc(COC(=O)c3cc(-c4ccccc4)nn3-c3ccccc3)cc(=O)n2c1 [CBK296959],89.8
11,O=C(Oc1ccccc1)c1cc(Cl)cnc1Cl [CBK090320],101
12,CC(=O)Nc1ccc(-c2csc(Nc3ccc(S(=O)(=O)Nc4nc(C)cc(C)n4)cc3)n2)cc1 [CBK267295],87
13,CCC(Sc1nc(N)cc(=O)[nH]1)C(=O)Nc1ccc2ccccc2c1 (stereo not drawn) [CBK265761],98.9
14,O=C(CSc1ccc2nnc(-c3ccc(F)cc3)n2n1)N1CCCC1 [CBK287519],85.3
15,CC1CCc2c(sc3ncnc(NCCc4nc5ccccc5[nH]4)c23)C1 (stereo not drawn) [CBK268809],91.6
16,CC(=O)N1CCCc2cc(C(O)CN3CCN(c4cccc(C)c4)CC3)ccc21 (stereo not drawn) [CBK286457],93.1
17,O=C(Nc1ccc(S(=O)(=O)N2CCOCC2)cc1)c1ccc(CN2CCc3ccccc3C2)cc1 [CBK266550],96.2
18,COc1ccc(-c2cn(-c3cc(Cl)ccc3C)nn2)cc1 [CBK113023],58.6
19,O=C1NCC2(CCN(Cc3ccccc3)CC2)Oc2ccccc21 [CBK285323],91.8
20,COc1cc(/C=C2\SC(=N)NC2=O)cc(Cl)c1OS(=O)(=O)c1ccc(NC(C)=O)cc1 [CBK264502],107
21,CNc1cc(NS(=O)(=O)c2ccc(N)cc2)nc(NC)n1 [CBK011865C],96.1
22,O=C1COc2ccccc2C/C=C/C[C@H]2CN(C(=O)CN3CCN(CCO)CC3)CC[C@H]2N1 [CBK292146],110

row,SMILES,"viability at 28.5 h, 10 µM [%]"
1,Cc1nc2c(c(=O)[nH]1)CC[C@@H]1CN(C(=O)c3ccccc3F)C[C@H]21 [CBK284410],92.7
2,COc1ccc(C(C)C)cc1-c1cncc(Nc2ccc(Cl)cc2)n1 [CBK065285],108
3,CC(=O)Nc1cccc(C(=O)O)c1Cl [CBK038814],94.1
4,NC(=O)c1cccc(-c2cnc(N)c(NC3CCOCC3)n2)c1 [CBK063836],98.8
5,O=C(NCCc1cccs1)Nc1ccc(Cl)c(C(F)(F)F)c1 [CBK043775],97.6
6,CCCNC(=O)CN1C(=O)N2CCCN=C2c2ccc(Cl)cc21 [CBK284389],82.8
7,Nc1nc(N)nc(Cn2c(-c3nonc3N)nc3ccccc32)n1 [CBK263072],105
8,O=C(O)CCCN1C(=O)/C(=C/c2c[nH]c3ccccc23)SC1=S [CBK262580],119
9,Cc1cc(=O)oc2cc(OCC(=O)Nc3cccc(C(=O)O)c3)ccc12 [CBK287058],85
10,Cc1noc(C(C)C)c1C(=O)NC(C)c1cccc(Br)c1 (stereo not drawn) [CBK296618],92.8
11,O=C(OCCc1cccnc1)N1CCC(C(F)(F)F)CC1 [CBK200159],94.9
12,Cc1ccc(NS(=O)(=O)c2ccc(CCC(=O)N3CCc4ccccc4C3)cc2)cc1 [CBK267616],94.9
13,O=C(NCc1ccccn1)C1CC(=O)N(c2ccccc2)C1 (stereo not drawn) [CBK270175],88.7
14,CC(=O)NCCNC(=O)c1cnc(-c2ccc(Cl)cc2)c(-c2ccc(O)cc2)c1 [CBK036647],101
15,COc1ccc(C(=O)[C@H]2CCCN(C(=O)c3ccco3)C2)cc1 [CBK284327],99.7
16,CCCC(=O)Nc1ccc(-c2csc(N3CCCC3=O)n2)cc1 [CBK306088],82
17,CN1C(=O)CC2(C1=O)C(=O)N(C)c1ccc(F)cc12 (stereo not drawn) [CBK075290],105
18,Cc1cc(Cl)c(S(=O)(=O)NCc2cccs2)cc1OCC(N)=O [CBK266496],101
19,COC(=O)c1cn(C(=O)COc2ccc(Cl)cc2)c2ccccc12 [CBK262598],87
20,CC(C)(C)SCC(=O)c1ccc2c(c1)CCC(=O)N2 [CBK006168],104
21,CN(C)C(=O)Cn1nc(-c2cccc(-n3cccc3)c2)oc1=O [CBK283759],103
22,O=C(CC1CS(=O)(=O)CC1CC(=O)Nc1cccc(Cl)c1Cl)Nc1cccc(Cl)c1Cl (stereo not drawn) [CBK262404],95.3

row,SMILES,"viability at 28.5 h, 10 µM [%]"
1,CCN(C(=O)c1cnccn1)C(CC1CCCCC1)c1ccccc1 (stereo not drawn) [CBK061638],92.9
2,Cc1noc(C)c1NC(=O)N(Cc1ccc2ccccc2c1)CC1CCNCC1 [CBK049774],110
3,Cc1cc(C)c(S(=O)(=O)NCCSCCC(=O)O)c(C)c1 [CBK013358],95.7
4,COc1cc2cc3c(N)c(C(=O)NCc4cccs4)sc3nc2cc1OC [CBK120215],92
5,O=C(O)C[S+]([O-])c1ccccc1C(=O)O (stereo not drawn) [CBK263244],96.3
6,O=C(c1cccnc1)N1CCC(c2cc3ccccc3cn2)CC1 [CBK284891],101
7,CCCCC(CC)C(=O)N1CCN(c2ccc(OC)cc2)CC1 (stereo not drawn) [CBK091414],99.9
8,O=C1CC(N2CCN(C3CC(=O)N(Cc4ccccc4)C3=O)CC2)C(=O)N1Cc1ccccc1 (stereo not drawn) [CBK269198],122
9,Cc1nc(-c2cccs2)cc([C@H]2CN3CC[C@H]2C[C@@H]3CNC(=O)c2ccco2)n1 [CBK289127],86.9
10,COc1ccc(CCNC(=O)N2CCCC(C(=O)O)C2)cc1 (stereo not drawn) [CBK161367],101
11,O=C(CCN1CCN(CCO)CC1)N1c2ccccc2Sc2ccc(C(F)(F)F)cc21 [CBK278218C],96.4
12,COc1cccc(NS(=O)(=O)c2cc(CC(=O)O)ccc2OC)c1 [CBK298333],93.9
13,CC(=O)Oc1ccc(C(=O)Nc2ccc3c(c2)C(=O)N(CCC(=O)O)C3=O)cc1 [CBK265997],105
14,Cc1cn([C@H]2C[C@@H](O)[C@@H](CO)O2)c(=O)nc1N [CBK201307],100
15,O=C(O)COc1ccc(Br)cc1/C=C1\N=C(SCc2ccccc2)SC1=O [CBK265725],110
16,CCNC(=O)N1CC2(CCN(Cc3ccc(Cl)c(Cl)c3)CC2)c2ccccc21 [CBK126690],95.4
17,COc1ccc(OC)c(S(=O)(=O)N2CCC(C(=O)O)CC2)c1 [CBK266835],83.5
18,CCOC(=O)c1ccc(NC(=O)C(C)Oc2ccccc2C)cc1 (stereo not drawn) [CBK268660],102
19,Cc1ccc(-c2nnc(COC(=O)c3cc(O)nc4ccccc34)o2)cc1 [CBK269741],88.9
20,C/C(=C(/C(=O)N(N)c1nc2ccccc2s1)C(=O)C(F)(F)F)N1CCC(C(N)=O)(N2CCCCC2)CC1 [CBK265787],101
21,CCN1CC2(CCN(CCCn3c(=O)[nH]c4ccccc43)CC2)c2ccccc21 [CBK131483],93.7
22,COc1cc(CNc2ccc(N3CCCCC3)cc2)cc(Cl)c1OCc1cccs1 [CBK074586],101

row,SMILES,"viability at 28.5 h, 10 µM [%]"
1,NC(=O)C1(Cc2cccc(-c3cccs3)c2)CCN(C(=O)COc2ccccc2)CC1 [CBK285741],103
2,Cn1cc(CCO)c2ccccc21 [CBK081087],109
3,N#CC1(NC(=O)CN2CCOC(Cn3cccn3)C2)CCCC1 (stereo not drawn) [CBK304911],95.8
4,O=C(O)[C@H]1CN(C(=O)c2ccco2)C[C@@H]1c1ccc(F)cc1 [CBK283735],105
5,Cc1nc(-c2nnc(SCc3ccc(C(F)(F)F)cc3)o2)cs1 [CBK067715],95.1
6,CC(=O)Nc1ccc(S(=O)(=O)/N=C(\Nc2nc(C)cc(C)n2)Nc2ccccc2F)cc1 [CBK266134],106
7,COCC1=C(C(=O)OC)[C@H](c2ccc(F)c(F)c2)N(C(=O)NCCCN2CCC(c3cccc(NC(C)=O)c3)CC2)C(=O)N1 [CBK051451C],93.5
8,COCCOC1CN(Cc2cn(-c3ccc(Br)cc3)nc2C(C)C)C1 [CBK304852],87.7
9,COC(=O)c1c(NC(=S)NCc2ccc(S(N)(=O)=O)cc2)sc2c1CCC(C)C2 (stereo not drawn) [CBK267039],97.6
10,Cc1cc(C)c(NS(=O)(=O)c2ccc(NC(=S)Nc3ccc(S(N)(=O)=O)cc3)cc2)c(C)c1 [CBK267005],94.2
11,C(=C\c1ccccc1)/Cn1c(COc2ccccc2)nc2ccccc21 [CBK265535],91.6
12,O=C(C1=C(O)C(=O)N(CCN2CCOCC2)C1c1ccccn1)c1cccs1 (stereo not drawn) [CBK266508],99.3
13,O=C(C1CC=CCC1)N1CCCC(c2[nH]ncc2-c2ccncc2)C1 (stereo not drawn) [CBK284198],93.2
14,Cc1nn(C)c(C)c1OCC(=O)Nc1sc2c(c1C#N)CCC2 [CBK306374],79.4
15,CNC(=O)N1CCN(CCOC(c2ccc(F)cc2)c2ccc(F)cc2)CC1 [CBK024948C],87.3
16,O=C(Nc1ccc2c(c1)OCCO2)N1CCN(c2ccccc2)CC1 [CBK155187],94.7
17,COc1ccc2c(c1)sc1ncc(C#N)n12 [CBK016716],87.9
18,CN(C)CCN(C)c1cncc(-c2ccc(Cl)cc2)n1 [CBK065724],93
19,COc1ccc(-c2cc(CC3(NCc4ccccc4O)COC3)no2)cc1 [CBK289697],91.3

# Same assay, conditions: human, hela cells, % viability, bulk resorufin, single well
row,SMILES,"viability at 28.5 h, 10 µM [%]"
1,O=C(Nc1ccccc1C(F)(F)F)N1CCC2(CC1)OCCO2 [CBK043655],94.1

# Source: PMC12040169 (PLOS Biology, 2025)
